# Test system: mast cell burden in patients with AdvSM
# Test: Changes in measures of mast cell burden (BM mast cells, serum tryptase, spleen volume)
# Type: in vivo, human
# Description: Other secondary endpoints included PK, DOR and changes in measures of mast cell burden (percentage of BM mast cells, serum tryptase concentration, KIT D816V VAF by ddPCR (detection limit 0.17%), and spleen and liver volumes). PROs were measured by daily completion of AdvSM-SAF (described below) for patients in part 2 as a secondary outcome[37]–[39]. Exploratory endpoints included time to response, PFS and OS.
# The percentage change from baseline in spleen and liver volume as measured by central radiographic assessment using an MRI or a CT scan was summarized over time in the safety population. In addition, maximum percentage reduction was presented in waterfall plots.
# Responses were assessed according to the protocol schedule. Spleen size was assessed by palpation and by imaging with calculation of volume centrally. KIT D816V VAF in the BM (or in blood if unavailable) was centrally measured using a validated ddPCR assay with a lower limit of detection of 0.17% (Bio-Rad). Other somatic mutations in BM were centrally assayed at baseline by next-generation sequencing.
smiles,measurement,setting,value
Cn1cc(-c2cc3c(N4CCN(c5ncc([C@@](C)(N)c6ccc(F)cc6)cn5)CC4)ncnn3c2)cn1 [avapritinib],Patients with spleen volume reduced by ≥35%,66 patients with a baseline spleen volume assessment,82%
same,Patients with BM mast cells decreased by ≥50%,patients with AdvSM,92%
same,Patients with mast cell aggregates eliminated,patients with AdvSM,77%
same,Patients with serum tryptase reduced by ≥50%,patients with AdvSM,99%
same,Patients with serum tryptase reduced to <20 ng ml^−1,patients with AdvSM,74%
